Reference: patent publication US20070117743A1, “New antitumoral compounds” (priority 2003, published 2007)
Read-outs that look alike come from different tables or passages of the source. Where a SMILES comes first, the peptide text is derived from it. Bridges are numbered along the chain shown (N, C = ends). [ ]: non-standard residue; d: D form. The star is where a group is joined. 2Nal = N[C@@H](Cc1ccc2ccccc2c1)C(=O)O; Hexanoyl(4S-Me) = CC[C@H](C)CCC(=O)*; d(aIle) = CC[C@H](C)[C@@H](N)C(=O)O; d(aThr) = C[C@@H](O)[C@@H](N)C(=O)O; Hexanoyl(5-Me) = CC(C)CCCC(=O)*; Orn = NCCC[C@H](N)C(=O)O; Dhb = C/C=C(\N)C(=O)O

What was measured:
Assay type in all cases: cell-based, human
HT-29 = experiment: SRB colorimetric assay of cell growth and viability, HT-29; conditions: 48 hours exposure; for GI50: read-out: GI50 HT-29; for CC50: read-out: LC50 HT-29
HeLa-APL = experiment: SRB colorimetric assay of cell growth and viability, HeLa-APL; conditions: 48 hours exposure; for CC50: read-out: LC50 HELA-APL
HeLa = experiment: SRB colorimetric assay of cell growth and viability, HeLa; conditions: 48 hours exposure; for CC50: read-out: LC50 HELA
DU-145 = experiment: SRB colorimetric assay of cell growth and viability, DU-145; conditions: 48 hours exposure
IGROV-1 = experiment: SRB colorimetric assay of cell growth and viability, IGROV-1; conditions: 48 hours exposure
LoVo = experiment: SRB colorimetric assay of cell growth and viability, LoVo; conditions: 48 hours exposure; for CC50: read-out: LC50 LOVO
LoVo-Dox = experiment: SRB colorimetric assay of cell growth and viability, LoVo-Dox; conditions: 48 hours exposure; for CC50: read-out: LC50 LOVO-DOX
Summary of the method: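 First, 5×10^3 cells per well attach for 18 hours in RPMI 1640 with 10% FBS at 37° C and 5% CO2. Next, samples spanning 10 to 10^−8 μg/mL are added for 48 hours. Finally, cells are fixed with TCA, stained with SRB for 10 minutes and read at 490 nm.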

A-549 = experiment: SRB colorimetric assay of cell growth and viability, A-549; conditions: 48 hours exposure; for GI50: read-out: GI50 A-549; for CC50: read-out: LC50 A-549
SK-MEL-28 = experiment: SRB colorimetric assay of cell growth and viability, SK-MEL-28; conditions: 48 hours exposure; for CC50: read-out: LC50 MEL-28
IGROV-ET = experiment: SRB colorimetric assay of cell growth and viability, IGROV-ET; conditions: 48 hours exposure; for CC50: read-out: LC50 IGROV-ET
K-562 = experiment: SRB colorimetric assay of cell growth and viability, K-562; conditions: 48 hours exposure; for CC50: read-out: LC50 K-562
SK-BR-3 = experiment: SRB colorimetric assay of cell growth and viability, SK-BR-3; conditions: 48 hours exposure
PANC-1 = experiment: SRB colorimetric assay of cell growth and viability, PANC-1; conditions: 48 hours exposure; for CC50: read-out: LC50 PANC-1

C/C=C1\NC(=O)[C@H](Cc2ccc(OC)cc2)NC(=O)[C@@H](C(C)C)NC(=O)[C@@H]([C@@H](C)CC)NC(=O)[C@H](NC(=O)[C@H](NC(=O)[C@H](CCCN)NC(=O)[C@H]2CCCN2C(=O)[C@H](NC(=O)[C@@H](NC(=O)[C@@H](NC(=O)[C@H](NC(=O)CC[C@@H](C)CC)C(C)C)[C@@H](C)O)C(C)C)C(C)C)[C@@H](C)CC)[C@@H](C)OC(=O)[C@H](C(C)C)NC1=O [Compound 75, [Tyr(Me)^3, (4S)-MeHex^14]-KF] ({Hexanoyl(4S-Me)}-[dV]TV[dV][dP][Orn][d(aIle)][d(aThr)][d(aIle)][dV]Y(Me)[Dhb]V; ester 8-C)
TGI HT-29 (HT-29; SRB): 2.80E−07 Molar
GI50 (HT-29; SRB): 158 nM
CC50 (HT-29; SRB): 495 nM
GI50 (HeLa-APL; SRB): 942 nM
TGI HELA-APL (HeLa-APL; SRB): 1.78E−06 Molar
CC50 (HeLa-APL; SRB): 3380 nM
GI50 (HeLa; SRB): 509 nM
TGI HELA (HeLa; SRB): 1.18E−06 Molar
CC50 (HeLa; SRB): 2500 nM
GI50 (DU-145; SRB): 749 nM
LC50 (concentration causing 50% net cell kill) (DU-145; SRB): 3160 nM
TGI DU-145 (DU-145; SRB): 1.54E−06 Molar
GI50 (IGROV-1; SRB): 350 nM
LC50 (concentration causing 50% net cell killing) (IGROV-1; SRB): 2360 nM
TGI IGROV (IGROV-1; SRB): 8.36E−07 Molar
GI50 (LoVo; SRB): 126 nM
TGI LOVO (LoVo; SRB): 2.22E−07 Molar
CC50 (LoVo; SRB): 391 nM
GI50 (LoVo-Dox; SRB): 137 nM
TGI LOVO-DOX (LoVo-Dox; SRB): 2.27E−07 Molar
CC50 (LoVo-Dox; SRB): 379 nM
TGI A-549 (A-549; SRB): 1.91E−06 Molar
GI50 (A-549; SRB): 1030 nM
CC50 (A-549; SRB): 3550 nM
GI50 (SK-MEL-28; SRB): 975 nM
TGI MEL-28 (SK-MEL-28; SRB): 1.82E−06 Molar
CC50 (SK-MEL-28; SRB): 3400 nM
GI50 (IGROV-ET; SRB): 380 nM
TGI IGROV-ET (IGROV-ET; SRB): 9.09E−07 Molar
CC50 (IGROV-ET; SRB): 2410 nM
GI50 (K-562; SRB): 533 nM
TGI K-562 (K-562; SRB): 2.15E−06 Molar
CC50 (K-562; SRB): 6630 nM
GI50 (SK-BR-3; SRB): 251 nM
LC50 (SK-BR-3; SRB): 2380 nM
TGI SK-BR-3 (SK-BR-3; SRB): 6.03E−07 Molar
GI50 (PANC-1; SRB): 1700 nM
TGI PANC-1 (PANC-1; SRB): 3.08E−06 Molar
CC50 (PANC-1; SRB): 5590 nM

C/C=C1\NC(=O)[C@H](Cc2ccc3ccccc3c2)NC(=O)[C@@H](C(C)C)NC(=O)[C@@H]([C@@H](C)CC)NC(=O)[C@H](NC(=O)[C@H](NC(=O)[C@H](CCCN)NC(=O)[C@H]2CCCN2C(=O)[C@H](NC(=O)[C@@H](NC(=O)[C@@H](NC(=O)[C@H](NC(=O)CCCC(C)C)C(C)C)[C@@H](C)O)C(C)C)C(C)C)[C@@H](C)CC)[C@@H](C)OC(=O)[C@H](C(C)C)NC1=O [Compound 85, [Nal^3]-KF] ({Hexanoyl(5-Me)}-[dV]TV[dV][dP][Orn][d(aIle)][d(aThr)][d(aIle)][dV][2Nal][Dhb]V; ester 8-C)
TGI HT-29 (HT-29; HT-29): 1.16E−07 Molar
GI50 (HT-29; HT-29): 73.1 nM
CC50 (HT-29; HT-29): 278 nM
GI50 (HeLa-APL; HELA-APL): 90.7 nM
TGI HELA-APL (HeLa-APL; HELA-APL): 1.91E−07 Molar
CC50 (HeLa-APL; HELA-APL): 427 nM
GI50 (HeLa; HELA): 78.6 nM
TGI HELA (HeLa; HELA): 1.94E−07 Molar
CC50 (HeLa; HELA): 462 nM
GI50 (DU-145; DU-145): 111 nM
LC50 (concentration causing 50% net cell kill) (DU-145; DU-145): 488 nM
TGI DU-145 (DU-145; DU-145): 2.53E−07 Molar
GI50 (IGROV-1; IGROV): 49.8 nM
LC50 (concentration causing 50% net cell killing) (IGROV-1; IGROV): 169 nM
TGI IGROV (IGROV-1; IGROV): 9.81E−08 Molar
GI50 (LoVo; LOVO): 32.8 nM
TGI LOVO (LoVo; LOVO): 8.16E−08 Molar
CC50 (LoVo; LOVO): 192 nM
GI50 (LoVo-Dox; LOVO-DOX): 37 nM
TGI LOVO-DOX (LoVo-Dox; LOVO-DOX): 8.77E−08 Molar
CC50 (LoVo-Dox; LOVO-DOX): 847 nM
TGI A-549 (A-549; A-549): 3.39E−07 Molar
GI50 (A-549; A-549): 192 nM
CC50 (A-549; A-549): 599 nM
GI50 (SK-MEL-28; MEL-28): 230 nM
TGI MEL-28 (SK-MEL-28; MEL-28): 3.64E−07 Molar
CC50 (SK-MEL-28; MEL-28): 579 nM
GI50 (IGROV-ET; IGROV-ET): 74.3 nM
TGI IGROV-ET (IGROV-ET; IGROV-ET): 1.44E−07 Molar
CC50 (IGROV-ET; IGROV-ET): 425 nM
GI50 (K-562; K-562): 301 nM
TGI K-562 (K-562; K-562): 7.13E−07 Molar
CC50 (K-562; K-562): 1380 nM
GI50 (SK-BR-3; SK-BR-3): 37.1 nM
LC50 (SK-BR-3; SK-BR-3): 170 nM
TGI SK-BR-3 (SK-BR-3; SK-BR-3): 5.80E−08 Molar
GI50 (PANC-1; PANC-1): 694 nM
TGI PANC-1 (PANC-1; PANC-1): 1.04E−06 Molar
CC50 (PANC-1; PANC-1): 1570 nM
